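Values below derive from 48-hour exposures of cells grown in 96-well plates, with endpoints linearly interpolated between the two concentrations bracketing the appropriate inhibition level. GI50: concentration for 50% inhibition of growth. TGI marks complete inhibition of growth.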
Legend:
Assay in all cases: inhibition of tumour cell growth, NCI panel, 48 h
OVCAR-4 ovarian = tested on: OVCAR-4 ovarian
EKVX NSCLC = tested on: EKVX NSCLC
OVCAR-8 ovarian = tested on: OVCAR-8 ovarian
HCT-15 colon = tested on: HCT-15 colon
SK-MEL-5 melanoma = tested on: SK-MEL-5 melanoma
SNB-75 CNS = tested on: SNB-75 CNS
786-0 renal = tested on: 786-0 renal
SF-539 CNS = tested on: SF-539 CNS
PC-3 prostate = tested on: PC-3 prostate
MDA-MB-435 = tested on: MDA-MB-435

Row | Compound | TGI (OVCAR-4 ovarian) [µM] | TGI (EKVX NSCLC) [µM] | TGI (OVCAR-8 ovarian) [µM] | TGI (HCT-15 colon) [µM] | TGI (SK-MEL-5 melanoma) [µM] | TGI (SNB-75 CNS) [µM] | TGI (786-0 renal) [µM] | TGI (SF-539 CNS) [µM] | GI50 (PC-3 prostate) [µM] | TGI (PC-3 prostate) [µM] | GI50 (OVCAR-4 ovarian) [µM] | GI50 (OVCAR-8 ovarian) [µM] | GI50 (MDA-MB-435) [µM] | TGI (MDA-MB-435) [µM] | GI50 (HCT-15 colon) [µM] | GI50 (SK-MEL-5 melanoma) [µM] | GI50 (786-0 renal) [µM] | GI50 (SNB-75 CNS) [µM] | GI50 (SF-539 CNS) [µM] | GI50 (EKVX NSCLC) [µM]
1 | COc1cc(Br)c(CC2=NCCc3cc(OC)c(OC)cc32)cc1OC | > 100 | > 100 | > 100 | > 100 | 36 | > 100 | > 100 | 87 | – | – | – | – | – | – | – | – | – | – | – | –
2 | CC1=C2C(c3ccccc3)(c3ccccc3)C3C=CC2(C=N3)N(C(=O)NC2CCCCC2)C1=O (stereo unspecified) | 31.5 | 28.7 | 33.6 | 30.4 | 30.5 | – | 29.4 | 30.7 | – | – | – | – | – | – | – | – | – | – | – | –
3 | COc1cccc(C2C(C(=O)Nc3cc(=O)n(C)c(=O)n3C)=C(C)NC(C)=C2C(=O)Nc2cc(=O)n(C)c(=O)n2C)c1O | > 100 | > 100 | > 100 | – | > 100 | > 100 | > 100 | > 100 | – | – | – | – | – | – | – | – | – | – | – | –
4 | Cc1ccc(Nc2ccc(Nc3ccc(C)cc3)c3c2C(=O)c2c(O)ccc(O)c2C3=O)cc1 | > 100 | > 100 | > 100 | > 100 | > 100 | > 100 | > 100 | > 100 | – | – | – | – | – | – | – | – | – | – | – | –
5 | C=C(C)C1/C=C(/C(C)C)CC[C@]2(C)O[C@@H]2CC[C@H](C)CC1=O (stereo partly specified) | > 100 | – | > 100 | > 100 | > 100 | – | > 100 | – | 32.4 | > 100 | 72.4 | 58.3 | 39 | > 100 | > 100 | 55 | 32.4 | – | – | –
6 | COc1cc2c(cc1C)n(O)c(C)c(C(=O)C/C(=N/NC(=O)C[N+](C)(C)C)C(=O)Nc1cccc(Cl)c1C)[n+]2=O | > 100 | > 100 | > 100 | > 100 | > 100 | > 100 | > 100 | > 100 | – | – | – | – | – | – | – | – | – | – | – | –
7 | COc1ccc(/C=C2\N=C3SC=C(N)N3C2=O)cc1 | 11 | – | 10.4 | 3.98 | 2.64 | 7.61 | 2.7 | 4.07 | 0.559 | 3.57 | 0.485 | 1.44 | 0.808 | 6.06 | 0.817 | 0.833 | 1.28 | 0.757 | 1.5 | –
8 | CCOC(=O)C(C[Si](C)(C)C)P(=O)(OCC)OCC (stereo unspecified) | > 100 | – | > 100 | > 100 | > 100 | > 100 | > 100 | > 100 | – | – | – | – | – | – | – | – | – | – | – | –
9 | CCC1(CN(C)C)CC/C(=C\c2ccc3c(c2)OCO3)C1=O (stereo unspecified) | > 100 | > 100 | > 100 | > 100 | > 100 | > 100 | > 100 | > 100 | – | – | – | – | – | – | – | – | – | – | – | –
10 | CCS/C(Nc1ccccc1)=C(\C#N)C(=O)Nc1ccc(OC)cc1 | > 100 | > 100 | > 100 | > 100 | 8.19 | 7.21 | > 100 | 4.81 | – | – | 7.61 | 4.37 | 0.37 | 1.89 | 1.19 | 2.2 | 4.14 | 2.13 | 1.96 | 4.42
11 | C[Si](C)(C)/C=C/CN1C(=O)CCC1O (stereo unspecified) | > 100 | > 100 | > 100 | > 100 | > 100 | > 100 | > 100 | > 100 | – | – | – | – | – | – | – | – | – | – | – | –
12 | CCOC(=O)C12CC1(C(=O)OCC)C1CCC2C1 (stereo unspecified) | > 100 | – | > 100 | > 100 | > 100 | – | > 100 | – | – | – | – | – | – | – | – | – | – | – | – | –
13 | C=C1C(C)C2C(Cc3ccccc3)NC(=O)C23C(OC(C)=O)/C=C/C(C)(O)CC(C)C/C=C/C3C1O (stereo unspecified) | 82.9 | > 96.7 | > 100 | > 100 | 35.6 | 0.0862 | > 100 | 13 | 15.8 | > 100 | – | – | – | – | – | – | – | – | – | –
14 | Fc1ccccc1C1CC(C(c2ccccc2)c2ccccc2)=Nc2ccccc2S1 (stereo unspecified) | 32.9 | 24.5 | 48.5 | 30.8 | 24.9 | 5.48 | 16.2 | 50.4 | – | – | – | – | – | – | – | – | – | – | – | –
15 | CCC1(OC(C)=O)C(=O)OCc2c1cc1n(c2=O)Cc2cc3ccccc3nc2-1 (stereo unspecified) | > 100 | > 100 | > 100 | > 100 | 4 | > 44.6 | > 31.1 | 5.23 | – | – | – | – | – | – | – | – | – | – | – | –
16 | COC1=C(OC)CCC(/C(C#N)=C/c2ccc(OC)c(OC)c2)=C1 | > 100 | – | > 100 | > 100 | > 100 | 43 | > 100 | > 100 | – | – | – | – | – | – | – | – | – | – | – | –
17 | Cc1ccc(NC(=O)C(=O)Cc2nc3ccccc3o2)c(C)c1 | > 100 | > 100 | > 100 | > 100 | – | > 100 | > 100 | > 100 | – | – | – | – | – | – | – | – | – | – | – | –
18 | CCCCCCCCCC(=O)CC(=O)c1c(O)cccc1O | > 100 | 86.9 | > 100 | – | – | 99.7 | 35.3 | > 100 | – | – | – | – | – | – | – | – | – | – | – | –
19 | COc1ccccc1/C=C\c1cc(OC)c(OC)c(OC)c1 | > 100 | > 100 | > 100 | > 100 | 13.5 | 72.6 | > 100 | 46.4 | – | – | – | – | – | – | – | – | – | – | – | –
20 | O=c1cccccc1NCCCCNc1cccccc1=O | > 100 | > 100 | > 100 | > 100 | 96.8 | > 100 | > 100 | – | – | – | – | – | – | – | – | – | – | – | – | –
21 | COc1ccc2c(c1)OC13Oc4cc(OC)ccc4C=C1CCCC3=C2 | > 100 | > 100 | > 100 | > 100 | > 100 | – | > 100 | > 100 | > 100 | > 100 | > 100 | > 100 | 5.52 | > 100 | > 100 | 13.6 | > 100 | – | > 100 | > 100
22 | CC(C)(C)CC(C)(C)c1ccc(OCCOCCSC(=N)N)cc1 | 3.1 | – | 3.56 | 3.85 | – | 3.85 | 3.46 | 3.31 | 2.37 | 7.25 | 1.54 | 1.86 | 1.51 | 2.84 | 1.8 | – | 1.71 | 1.37 | 1.81 | –

Reference: PubChem BioAssay (NCI)
